Here are results for 22 compounds from patent US9234000B2, “Benzylamine derivatives as inhibitors of plasma kallikrein” (KalVista Pharmaceuticals Limited, priority 2011, dated 2016).

Usually IC50 stands for the concentration that inhibits the measured activity by half. For orientation: solubility means the dissolved amount per volume that the medium holds. A higher solubility goes with much dissolved substance.

One data set concerns the target Human plasma kallikrein (Homo sapiens (Human), UniProt P03952). Briefly: Determination of the IC50 for plasma kallikrein. It counts as biochemical. Particulars: fluorogenic substrate H-DPro-Phe-Arg-AFC, 37° C., read-out: IC50 (human PKal). An outline of the steps:
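Residual activity (initial rate, absorbance at 410 nm) gave the IC50. Reactions at 37° C combined human plasma kallikrein, substrate H-DPro-Phe-Arg-AFC and a range of inhibitor concentrations.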

Another data set has as its target Human KLK1 (Homo sapiens (Human), UniProt P06870). Kind of data set: Determination of the IC50 for KLK1. It counts as biochemical. Particulars: Human KLK1, 37° C., substrate H-DVal-Leu-Arg-AFC; Table 12. A digest of the protocol:
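Human KLK1 incubated at 37° C with fluorogenic substrate H-DVal-Leu-Arg-AFC and a range of test compound concentrations. Residual activity taken as initial reaction rate from absorbance change at 410 nm; IC50 derived from these rates.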

Another data set can be described thus: physchem. Particulars: for solubility in PO4 buffer: pH 7; for solubility: pH 7, aqueous buffer, kinetic from dmso stock. As to the method:
Determination of the Kinetic Solubility in Phosphate Buffer
After shaking for approximately 30 seconds the reduction in light transmission of these samples, at 650 nm, was measured (Molecular Devices Spectromax UV/visible spectrophotometer). A second measurement was taken at approximately 30 seconds later.

≈ marks a conversion by molar mass, not a printed value.

Chain of Human KLK1 (P06870 25-262): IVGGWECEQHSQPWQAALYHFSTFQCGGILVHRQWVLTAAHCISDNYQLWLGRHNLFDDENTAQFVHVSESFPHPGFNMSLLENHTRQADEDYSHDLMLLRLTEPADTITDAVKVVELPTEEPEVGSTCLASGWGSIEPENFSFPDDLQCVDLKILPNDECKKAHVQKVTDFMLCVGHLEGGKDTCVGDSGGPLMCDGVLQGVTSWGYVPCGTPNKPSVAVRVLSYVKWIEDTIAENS
Chain of Human plasma kallikrein (P03952 391-638): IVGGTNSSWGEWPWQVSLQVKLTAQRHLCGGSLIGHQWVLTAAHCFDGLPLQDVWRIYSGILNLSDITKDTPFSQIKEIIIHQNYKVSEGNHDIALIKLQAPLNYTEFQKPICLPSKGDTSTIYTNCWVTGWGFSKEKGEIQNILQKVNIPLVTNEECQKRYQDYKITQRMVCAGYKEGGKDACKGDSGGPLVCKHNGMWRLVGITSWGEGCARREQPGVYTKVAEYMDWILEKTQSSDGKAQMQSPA
Chain of Human plasma kallikrein (P03952 20-390 partner): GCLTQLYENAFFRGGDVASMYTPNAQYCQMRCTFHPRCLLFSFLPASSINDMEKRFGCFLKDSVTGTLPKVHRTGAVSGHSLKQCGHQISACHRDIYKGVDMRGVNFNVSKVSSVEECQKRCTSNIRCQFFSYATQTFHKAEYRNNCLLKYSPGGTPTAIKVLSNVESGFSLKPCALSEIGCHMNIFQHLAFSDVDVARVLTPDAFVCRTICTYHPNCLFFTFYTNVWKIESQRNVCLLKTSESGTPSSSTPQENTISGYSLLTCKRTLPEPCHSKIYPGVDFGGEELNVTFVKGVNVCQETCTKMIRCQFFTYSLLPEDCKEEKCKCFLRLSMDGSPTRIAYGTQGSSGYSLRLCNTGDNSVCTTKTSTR

On to `CCOc1ccc(C[C@@H](NC(=O)C(C)C)C(=O)N(C)[C@@H](Cc2ccccc2)C(=O)NCc2ccc(CN)cc2)cc1` [Example 44, N-[(R)-1-{[(S)-1-(4-Aminomethyl-benzylcarbamoyl)-2-phenyl-ethyl]-methyl-carbamoyl}-2-(4-ethoxy-phenyl)-ethyl]-isobutyramide], for which the results for the IC50 on Human plasma kallikrein and against Human KLK1 were 0.18 µM and more than 10 µM, respectively. The compound also yielded a solubility in PO4 buffer in “physchem” of more than 235 µM.

Turning to `CCOc1ccc(C[C@@H](N)C(=O)N[C@@H](Cc2ccc(Cl)c(Cl)c2)C(=O)NCc2ccc(CN)cc2)cc1` [Example 14, (R)-2-Amino-N-[(S)-1-(4-aminomethyl-benzylcarbamoyl)-2-(3,4-dichloro-phenyl)-ethyl]-3-(4-ethoxy-phenyl)-propionamide], the IC50 on Human plasma kallikrein turned out to be 0.4 µM; against Human KLK1, 3.7 µM. Further, the solubility in PO4 buffer in “physchem” was more than 235 µM.

Regarding `CCOc1ccc(C[C@@H](NS(=O)(=O)c2ccccc2)C(=O)N[C@@H](Cc2ccccc2)C(=O)NCc2ccc(CN)cc2)cc1` [Example 15, (R)-N-[(S)-1-(4-Aminomethyl-benzylcarbamoyl)-2-phenyl-ethyl]-2-benzenesulfonylamino-3-(4-ethoxy-phenyl)-propionamide], the IC50 at Human plasma kallikrein stood at 0.47 µM; at Human KLK1 it was 2.2 µM. The same compound had a solubility in PO4 buffer in “physchem” of more than 235 µM.

Consider `CCC(=O)N[C@H](CC1CCCCC1)C(=O)N[C@@H](Cc1ccc(Cl)c(Cl)c1)C(=O)NCc1ccc(CN)cc1` [Example 21, (R)-N-[(S)-1-(4-Aminomethyl-benzylcarbamoyl)-2-(3,4-dichloro-phenyl)-ethyl]-3-cyclohexyl-2-propionylamino-propionamide], for which the IC50 amounted to 5.1 µM at Human plasma kallikrein and 10 µM on Human KLK1. The compound also returned a solubility in “physchem” of 12 µM (≈ 6.74 µg/mL).

On to `CCOc1ccc(C[C@@H](N)C(=O)N[C@@H](Cc2ccccc2)C(=O)NCc2ccc(CN)c(F)c2)cc1` [Example 6, (R)-2-Amino-N-[(S)-1-(4-aminomethyl-3-fluoro-benzylcarbamoyl)-2-phenyl-ethyl]-3-(4-ethoxy-phenyl)-propionamide], for which the IC50 on Human plasma kallikrein is 1 µM; against Human KLK1 it was more than 1 µM. For the same compound, the solubility in PO4 buffer in the data set “physchem” was more than 235 µM.

For `CCOc1ccc(C[C@@H](NC(=O)CC)C(=O)N[C@@H](Cc2ccccc2)C(=O)N(C)Cc2ccc(CN)cc2)cc1` [Example 24, (S)-N-(4-Aminomethyl-benzyl)-2-[(R)-3-(4-ethoxy-phenyl)-2-propionylamino-propionylamino]-N-methyl-3-phenyl-propionamide], the IC50 was 0.45 µM on Human plasma kallikrein and more than 10 µM on Human KLK1. This compound also registered a solubility in PO4 buffer in the data set “physchem” of more than 235 µM.

On to `CCOc1ccc(C[C@@H](NC(=O)CC)C(=O)N(C)[C@@H](Cc2ccccc2)C(=O)NCc2ccc(CN)c(F)c2)cc1` [Example 32, (S)-N-(4-Aminomethyl-3-fluoro-benzyl)-2-{[(R)-3-(4-ethoxy-phenyl)-2-propionylamino-propionyl]-methyl-amino}-3-phenyl-propionamide], for which the IC50 at Human plasma kallikrein was 0.2 µM; on Human KLK1 it was more than 10 µM. The solubility in PO4 buffer in “physchem” was more than 235 µM.

For the compound `CCOc1ccc(C[C@@H](NC(=O)CC)C(=O)N[C@@H](Cc2ccccc2)C(=O)NCc2ccc(CN)cc2)cc1` [Example 1, (S)—N-(4-Aminomethyl-benzyl)-2-[(R)-3-(4-ethoxy-phenyl)-2-propionylamino-propionylamino]-3-phenyl-propionamide], the IC50 on Human plasma kallikrein was 0.089 µM; against Human KLK1, more than 1 µM. In “physchem”, this compound displayed a solubility in PO4 buffer of more than 235 µM.

On to `CCOc1ccc(C[C@H](C(=O)N[C@@H](Cc2ccccc2)C(=O)NCc2ccc(CN)cc2)N(C)C(=O)CC)cc1` [Example 31, (S)-N-(4-Aminomethyl-benzyl)-2-[(R)-3-(4-ethoxy-phenyl)-2-(methyl-propionyl-amino)-propionylamino]-3-phenyl-propionamide], for which the values for the IC50 on Human plasma kallikrein and at Human KLK1 were 4.3 µM and 9.6 µM, respectively. Further, in the data set “physchem”, the solubility in PO4 buffer is more than 235 µM.

In the case of `CCOc1ccc(C[C@@H](NC(=O)CC)C(=O)N2CC[C@H](c3ccccc3)[C@H]2C(=O)NCc2ccc(CN)cc2)cc1` [Example 67, (2S,3R)-1-[(R)-3-(4-Ethoxy-phenyl)-2-propionylamino-propionyl]-3-pheny-pyrrolidine-2-carboxylic acid 4-aminomethyl-benzylamide], the IC50 on Human plasma kallikrein was 1.6 µM; at Human KLK1, more than 10 µM. The solubility in PO4 buffer in the data set “physchem” was more than 235 µM.

Regarding `CCCN[C@H](CC1CCCCC1)C(=O)N[C@@H](Cc1ccccc1)C(=O)NCc1ccc(CN)cc1` [Example 37, (R)-N-[(S)-1-(4-Aminomethyl-benzylcarbamoyl)-2-phenyl-ethyl]-3-cyclohexyl-2-propylamino-propionamide], the IC50 on Human plasma kallikrein is 0.91 µM; at Human KLK1, more than 10 µM. In addition, the solubility in PO4 buffer in “physchem” was more than 235 µM.

With `CCOc1ccc(C[C@@H](NC(=O)c2ccc(-c3ccccc3)cc2)C(=O)N[C@@H](Cc2ccccc2)C(=O)NCc2ccc(CN)cc2)cc1` [Example 57, Biphenyl-4-carboxylic acid [(R)-1-[(S)-1-(4-aminomethyl-benzylcarbamoyl)-2-phenyl-ethylcarbamoyl]-2-(4-ethoxy-phenyl)-ethyl]-amide], on Human plasma kallikrein, the IC50 was 10 µM. The compound further registered a solubility in the data set “physchem” of 36 µM (≈ 23.6 µg/mL).

Take `CCOc1ccc(C[C@@H](NCC(=O)O)C(=O)N[C@@H](Cc2ccccc2)C(=O)NCc2ccc(CN)cc2)cc1` [Example 17, [(R)-1-[(S)-1-(4-Aminomethyl-benzylcarbamoyl)-2-phenyl-ethylcarbamoyl]-2-(4-ethoxy-phenyl)-ethylamino]-acetic acid]: the IC50 on Human plasma kallikrein is 5.8 µM; against Human KLK1 it was more than 10 µM. Also, the solubility in PO4 buffer in the data set “physchem” is more than 235 µM.

On to `CN[C@H](CC1CCCCC1)C(=O)N[C@@H](Cc1ccccc1)C(=O)NCc1ccc(CN)c(F)c1` [Example 40, (R)-N-[(S)-1-(4-Aminomethyl-3-fluoro-benzylcarbamoyl)-2-phenyl-ethyl]-3-cyclohexyl-2-methylamino-propionamide], for which the IC50 on Human plasma kallikrein is 1.8 µM; on Human KLK1, more than 10 µM. In the data set “physchem”, this compound had a solubility in PO4 buffer of more than 235 µM.

For `CCOc1ccc(C[C@@H](NS(C)(=O)=O)C(=O)N[C@@H](Cc2ccccc2)C(=O)NCc2ccc(CN)cc2)cc1` [Example 2, (R)—N—[(S)-1-(4-Aminomethyl-benzylcarbamoyl)-2-phenyl-ethyl]-3-(4-ethoxy-phenyl)-2-methanesulfonylamino-propionamide], the IC50 at Human plasma kallikrein is 0.82 µM. The compound also returned a solubility in PO4 buffer in the data set “physchem” of more than 235 µM.

For `NCc1ccc(CNC(=O)[C@H](Cc2ccc(Cl)c(Cl)c2)NC(=O)[C@H](N)CC2CCCCC2)cc1` [Example 20, (R)-2-Amino-N-[(S)-1-(4-aminomethyl-benzylcarbamoyl)-2-(3,4-dichloro-phenyl)-ethyl]-3-cyclohexyl-propionamide], the results for the IC50 at Human plasma kallikrein and on Human KLK1 were 0.73 µM and 3.7 µM, respectively. In “physchem”, this compound registered a solubility in PO4 buffer of more than 235 µM.

As to `NCc1ccc(CNC(=O)[C@H](Cc2ccccc2)NC(=O)[C@@H](CC2CCCCC2)NCCO)cc1` [Example 51, (R)-N-[(S)-1-(4-Aminomethyl-benzylcarbamoyl)-2-phenyl-ethyl]-3-cyclohexyl-2-(2-hydroxy-ethylamino)-propionamide], the IC50 at Human plasma kallikrein was 1 µM; against Human KLK1, more than 10 µM. In “physchem”, this compound displayed a solubility in PO4 buffer of more than 235 µM.

On to `CCOc1ccc(C[C@@H](NC(=O)CC)C(=O)N[C@H](C(=O)NCc2ccc(CN)cc2)[C@@H](O)c2ccccc2)cc1` [Example 63, (2S,3S)-N-(4-Aminomethyl-benzyl)-2-[(R)-3-(4-ethoxy-phenyl)-2-propionylamino-propionylamino]-3-hydroxy-3-phenyl-propionamide], for which the IC50 on Human plasma kallikrein was 0.052 µM. This compound displayed a solubility in PO4 buffer in the data set “physchem” of more than 235 µM.

Consider `CCOc1ccc(C[C@@H](NC(=O)CC)C(=O)N(CC)[C@H](Cc2ccccc2)C(=O)NCc2ccc(CN)cc2)cc1` [Example 64, (R)-N-(4-Aminomethyl-benzyl)-2-{[(R)-3-(4-ethoxy-phenyl)-2-propionylamino-propionyl]-ethyl-amino}-3-phenyl-propionamide], for which the IC50 at Human plasma kallikrein was 3.4 µM. In addition, in “physchem”, the solubility in PO4 buffer was more than 235 µM.

`CS(=O)(=O)N[C@H](CC1CCCCC1)C(=O)N[C@@H](Cc1ccccc1)C(=O)NCc1ccc(CN)cc1` [Example 11, (R)-N-[(S)-1-(4-Aminomethyl-benzylcarbamoyl)-2-phenyl-ethyl]-3-cyclohexyl-2-methanesulfonylamino-propionamide]: the IC50 at Human plasma kallikrein was determined as 1.7 µM. In “physchem”, this compound came in with a solubility in PO4 buffer of more than 235 µM.

With `CCOc1ccc(C[C@@H](N)C(=O)N[C@H](C(=O)NCc2ccc(CN)cc2)[C@@H](O)c2ccccc2)cc1` [Example 61, (R)-2-Amino-N-[(1S,2S)-1-(4-aminomethyl-benzylcarbamoyl)-2-hydroxy-2-phenyl-ethyl]-3-(4-ethoxy-phenyl)-propionamide], the IC50 on Human plasma kallikrein turned out to be 0.22 µM. In the data set “physchem”, this compound showed a solubility in PO4 buffer of more than 235 µM.

As to `CCOc1ccc(C[C@@H](NC(=O)CC)C(=O)N[C@@H](Cc2ccccc2)C(=O)NCc2ccc(CN)cc2Cl)cc1` [Example 12, (S)-N-(4-Aminomethyl-2-chloro-benzyl)-2-[(R)-3-(4-ethoxy-phenyl)-2-propionylamino-propionylamino]-3-phenyl-propionamide], the IC50 on Human plasma kallikrein is 0.29 µM. The compound also gave a solubility in PO4 buffer in “physchem” of more than 235 µM.
